Results: patent publication US20120108811A1, “PROCESS FOR PREPARING TEMOZOLOMIDE” (FORMOSA LABORATORIES INC., priority 2010, published 2012)

How the values were obtained:
Format in all cases: physicochemical
[1] = Accelerated stability of Temozolomide prepared by conventional method, 25° C. ± 2° C., 60% ± 5% RH; conditions: for AICA NMT 0.15% / Appearance (White to off-white powder) / Assay (HPLC) (98.0-102.0%) / Individual unknown impurity NMT 0.10% / Purity (HPLC) NLT 99.0% / Total impurities NMT 1.00% / Water content (KF), NMT 1.00%: conventional method, 25° C. ± 2° C., RH 60% ± 5%
[2] = Long-term stability of Temozolomide prepared by conventional method, 2-8° C.; conditions: for AICA NMT 0.15% / Appearance (White to off-white powder) / Assay (HPLC) (98.0-102.0%) / Individual unknown impurity NMT 0.10% / Purity (HPLC) NLT 99.0% / Total impurities NMT 1.00% / Water content (KF), NMT 1.00%: conventional method, 2-8° C.
Method: The Temozolomide was stable at temperature 2-8° C.

[3] = Long-term stability of Temozolomide prepared by the process of the present invention, 25° C. ± 2° C., 60% ± 5% RH
Excerpt: The Temozolomide was stable at temperature 25 degree ° C. for at least 18 months.

[4] = process of the present invention, 25° C. ± 2° C., RH 60% ± 5%, 0 time
[5] = process of the present invention, 25° C. ± 2° C., RH 60% ± 5%, 1 month

AICA NMT 0.15% ([1]; 0 time): 0.06%
Appearance (White to off-white powder) ([1]; 0 time): White
Assay (HPLC) (98.0-102.0%) ([1]; 0 time): 101.7%
Individual unknown impurity NMT 0.10% ([1]; 0 time): 0.01%
Purity (HPLC) NLT 99.0% ([1]; 0 time): 99.9%
Total impurities NMT 1.00% ([1]; 0 time): 0.08%
Water content (KF), NMT 1.00% ([1]; 0 time): 0.17%
AICA NMT 0.15% ([1]; 1 month): 0.24%
Appearance (White to off-white powder) ([1]; 1 month): Off-white
Assay (HPLC) (98.0-102.0%) ([1]; 1 month): 101.7%
Individual unknown impurity NMT 0.10% ([1]; 1 month): 0.01%
Purity (HPLC) NLT 99.0% ([1]; 1 month): 99.8%
Total impurities NMT 1.00% ([1]; 1 month): 0.25%
Water content (KF), NMT 1.00% ([1]; 1 month): 0.25%
AICA NMT 0.15% ([1]; 2 months): 0.64%
Appearance (White to off-white powder) ([1]; 2 months): Off-white
Assay (HPLC) (98.0-102.0%) ([1]; 2 months): 99.4%
Individual unknown impurity NMT 0.10% ([1]; 2 months): 0.01%
Purity (HPLC) NLT 99.0% ([1]; 2 months): 99.3%
Total impurities NMT 1.00% ([1]; 2 months): 0.67%
Water content (KF), NMT 1.00% ([1]; 2 months): 0.24%
AICA NMT 0.15% ([2]; 0 time): 0.06%
Appearance (White to off-white powder) ([2]; 0 time): White
Assay (HPLC) (98.0-102.0%) ([2]; 0 time): 101.7%
Individual unknown impurity NMT 0.10% ([2]; 0 time): 0.01%
Purity (HPLC) NLT 99.0% ([2]; 0 time): 99.9%
Total impurities NMT 1.00% ([2]; 0 time): 0.08%
Water content (KF), NMT 1.00% ([2]; 0 time): 0.17%
AICA NMT 0.15% ([2]; 1 month): 0.02%
Appearance (White to off-white powder) ([2]; 1 month): White
Assay (HPLC) (98.0-102.0%) ([2]; 1 month): 101.4%
Individual unknown impurity NMT 0.10% ([2]; 1 month): 0.02%
Purity (HPLC) NLT 99.0% ([2]; 1 month): 100.0%
Total impurities NMT 1.00% ([2]; 1 month): 0.03%
Water content (KF), NMT 1.00% ([2]; 1 month): 0.36%
AICA NMT 0.15% ([2]; 2 months): 0.04%
Appearance (White to off-white powder) ([2]; 2 months): White
Assay (HPLC) (98.0-102.0%) ([2]; 2 months): 99.8%
Individual unknown impurity NMT 0.10% ([2]; 2 months): 0.01%
Purity (HPLC) NLT 99.0% ([2]; 2 months): 99.9%
Total impurities NMT 1.00% ([2]; 2 months): 0.06%
Water content (KF), NMT 1.00% ([2]; 2 months): 0.20%
AICA NMT 0.15% ([2]; 3 months): 0.01%
Appearance (White to off-white powder) ([2]; 3 months): Light beige
Assay (HPLC) (98.0-102.0%) ([2]; 3 months): 99.6%
Individual unknown impurity NMT 0.10% ([2]; 3 months): 0.01%
Purity (HPLC) NLT 99.0% ([2]; 3 months): 100.0%
Total impurities NMT 1.00% ([2]; 3 months): 0.03%
Water content (KF), NMT 1.00% ([2]; 3 months): 0.14%
AICA NMT 0.15% ([2]; 6 months): 0.01%
Appearance (White to off-white powder) ([2]; 6 months): Light beige
Assay (HPLC) (98.0-102.0%) ([2]; 6 months): 99.7%
Individual unknown impurity NMT 0.10% ([2]; 6 months): 0.01%
Purity (HPLC) NLT 99.0% ([2]; 6 months): 99.9%
Total impurities NMT 1.00% ([2]; 6 months): 0.05%
Water content (KF), NMT 1.00% ([2]; 6 months): 0.34%
AICA NMT 0.15% ([2]; 9 months): 0.04%
Appearance (White to off-white powder) ([2]; 9 months): Light beige
Assay (HPLC) (98.0-102.0%) ([2]; 9 months): 98.5%
Individual unknown impurity NMT 0.10% ([2]; 9 months): 0.01%
Purity (HPLC) NLT 99.0% ([2]; 9 months): 99.9%
Total impurities NMT 1.00% ([2]; 9 months): 0.05%
Water content (KF), NMT 1.00% ([2]; 9 months): 0.21%
AICA NMT 0.15% ([2]; 12 months): 0.06%
Appearance (White to off-white powder) ([2]; 12 months): Light beige
Assay (HPLC) (98.0-102.0%) ([2]; 12 months): 99.2%
Individual unknown impurity NMT 0.10% ([2]; 12 months): 0.02%
Purity (HPLC) NLT 99.0% ([2]; 12 months): 99.8%
Total impurities NMT 1.00% ([2]; 12 months): 0.09%
Water content (KF), NMT 1.00% ([2]; 12 months): 0.11%
Long-term stability (in words) ([2]; prepared by conventional method, temperature 2-8° C.): stable
Time stable ([3]; prepared by the process of the present invention, temperature 25 degree ° C.): at least 18 months
AICA NMT 0.15% [3, 4]: 0.01%
Appearance (White to off-white powder) [3, 4]: White
Assay (HPLC) (98.0-102.0%) [3, 4]: 99.7%
Purity (HPLC) NLT 99.0% [3, 4]: 100.0%
Total impurities NMT 1.00% [3, 4]: 0.01%
Water content (KF), NMT 1.00% [3, 4]: 0.09%
AICA NMT 0.15% [3, 5]: 0.01%
Appearance (White to off-white powder) [3, 5]: White
Assay (HPLC) (98.0-102.0%) [3, 5]: 100.0%
Purity (HPLC) NLT 99.0% [3, 5]: 100.0%
Total impurities NMT 1.00% [3, 5]: 0.01%
Structure (SMILES): Cn1nnc2c(C(N)=O)ncn2c1=O [Temozolomide, 8-carbamoyl-3-methyl-imidazo[5,1-d]-1,2,3,5-tetrazin-4(3H)-one]
Stability (in words) ([1]; prepared by conventional method, temperature 25 degree ° C.): easily to degrade to out of specification
